The target of one experiment is T1, human CB2 receptor (Homo sapiens, UniProt P34972).
T1 construct: expressed in transfected cells; host or cells: human embryonic kidney (HEK) cells, Semliki Forest Virus system, membrane preparations
Put plainly: CB2 receptor affinity ([3H]-CP-55,940 displacement, HEK cell membranes). The conditions noted are these: displacement of radioligand [3H]-CP-55,940. The experiment is classed as binding. In a few lines: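 Membranes from HEK cells transiently expressing human CB2 via Semliki Forest Virus, incubated with [3H]-CP-55,940 ± compound; bound ligand separated by glass-fiber filtration and counted by scintillation. Reported as % inhibition of radioligand binding at 10 μM compound.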

The target of the next experiment is T2, human CB1 receptor (Homo sapiens, UniProt P21554).
T2 construct: expressed in transfected cells; host or cells: human embryonic kidney (HEK) cells, Semliki Forest Virus system, membrane preparations
T2 sequence (P21554 whole entry): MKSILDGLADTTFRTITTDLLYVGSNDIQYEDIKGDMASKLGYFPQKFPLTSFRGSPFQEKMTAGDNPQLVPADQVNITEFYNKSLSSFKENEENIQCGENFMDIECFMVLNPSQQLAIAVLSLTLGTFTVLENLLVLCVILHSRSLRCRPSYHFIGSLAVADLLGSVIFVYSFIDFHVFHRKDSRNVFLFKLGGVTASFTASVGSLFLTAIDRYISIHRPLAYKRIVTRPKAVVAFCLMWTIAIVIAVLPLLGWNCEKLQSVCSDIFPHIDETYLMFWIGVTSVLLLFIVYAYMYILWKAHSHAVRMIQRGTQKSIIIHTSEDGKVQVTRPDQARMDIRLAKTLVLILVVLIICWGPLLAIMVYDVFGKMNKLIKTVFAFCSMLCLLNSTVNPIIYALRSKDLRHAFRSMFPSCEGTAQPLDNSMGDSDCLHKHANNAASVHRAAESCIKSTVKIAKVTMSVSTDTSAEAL
The experiment in a line: CB1 receptor affinity ([3H]-CP-55,940 displacement, HEK cell membranes). The experiment is classed as binding. The conditions noted are these: displacement of radioligand [3H]-CP-55,940. The gist of the method:
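HEK cell membranes transiently expressing human CB1 (Semliki Forest Virus) incubated with [3H]-CP-55,940 and compound at 10 μM. Bound and free ligand separated by glass-fibre filtration, then scintillation counting. Reported as % inhibition of radioligand binding.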

Another experiment concerns ABCA1 protein. Put plainly: Detection of upregulation of ABCA1 protein in cells (ApoA-I binding, high content image analysis). The experiment is classed as cell-based. The conditions noted are these: THP-1 macrophage cells; for % increase of ABCA1 at 3 μM: 24 hrs with compound; for EC50: ABCA1 protein increasing efficacy. In a few lines:
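THP-1 cells differentiated with 100 nM PMA for 68 hrs, loaded with 25 μg/ml acetylated LDL for 24 hours, then exposed to compound (0.5% DMSO) for 24 hrs. Surface ABCA1 measured by binding of AlexaFluor 647-labeled human ApoA-I (20 nM, 2 h, 37 °C) with confocal high-content imaging; EC50 from one-site dose-response fit.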

A word on the inhibition: it is the relative decrease from the control value, in per cent. One may read the EC50 as the concentration that produces a half-maximal response. Read a low EC50 as a more potent agent.

Where only a bound is given, the exact number is not on record here.

T1 sequence (P34972 whole entry): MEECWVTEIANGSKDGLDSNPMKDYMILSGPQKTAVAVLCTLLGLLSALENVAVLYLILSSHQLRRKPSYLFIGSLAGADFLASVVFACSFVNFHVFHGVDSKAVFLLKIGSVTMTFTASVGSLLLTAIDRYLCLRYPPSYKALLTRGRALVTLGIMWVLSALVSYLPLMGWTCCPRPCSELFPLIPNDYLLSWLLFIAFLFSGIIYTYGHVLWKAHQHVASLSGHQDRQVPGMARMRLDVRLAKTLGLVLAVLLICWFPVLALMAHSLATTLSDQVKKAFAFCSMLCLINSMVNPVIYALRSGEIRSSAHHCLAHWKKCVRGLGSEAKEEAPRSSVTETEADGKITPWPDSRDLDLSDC

For `O=C(Nc1cnc(OCC(F)(F)F)c(-c2ccc(Cl)cc2F)c1)c1cncnc1` [Example 55, N-(5-(4-chloro-2-fluorophenyl)-6-(2,2,2-trifluoroethoxy)pyridin-3-yl)pyrimidine-5-carboxamide], the inhibition at 10 µM amounted to 4% at human CB2 receptor and 35% at human CB1 receptor. In addition, the “% increase of ABCA1 at 3 μM” value with ABCA1 protein was greater than 45% @ 3 μM.

For the molecule `CCc1ccc(-c2cc(NC(=O)c3cncnc3)cnc2OCC(F)(F)F)cc1` [Example 56, N-(5-(4-ethylphenyl)-6-(2,2,2-trifluoroethoxy)pyridin-3-yl)pyrimidine-5-carboxamide], the inhibition at 10 µM on human CB2 receptor was found to be 0%; at human CB1 receptor, 35%. Moreover, the “% increase of ABCA1 at 3 μM” value in the experiment with ABCA1 protein is given as greater than 45% @ 3 μM.

As to `Cc1cc(-c2cc(NC(=O)c3ccnc(O)c3)cnc2OCC(F)(F)F)ccc1Cl` [Example 57, N-(5-(4-chloro-3-methylphenyl)-6-(2,2,2-trifluoroethoxy)pyridin-3-yl)-2-hydroxyisonicotinamide], the figures for the inhibition at 10 µM at human CB2 receptor and at human CB1 receptor were -18% and 0%, respectively. In addition, the “% increase of ABCA1 at 3 μM” value with ABCA1 protein is given as greater than 45% @ 3 μM.

Consider `Cc1cc(-c2cc(NC(=O)c3cn(C)nc3C)cnc2OCC(F)(F)F)ccc1Cl` [Example 58, N-(5-(4-chloro-3-methylphenyl)-6-(2,2,2-trifluoroethoxy)pyridin-3-yl)-1,3-dimethyl-1H-pyrazole-4-carboxamide], for which the inhibition at 10 µM on human CB2 receptor was -13%; on human CB1 receptor, 3%. Also, the EC50 with ABCA1 protein is 2200 nM.

Turning to `Cc1cc(-c2cc(NC(=O)c3c(F)ccnc3F)cnc2OCC(F)(F)F)ccc1Cl` [Example 59, N-(5-(4-chloro-3-methylphenyl)-6-(2,2,2-trifluoroethoxy)pyridin-3-yl)-2,4-difluoronicotinamide], the results for the inhibition at 10 µM at human CB2 receptor and at human CB1 receptor were 18% and 22%, respectively. In the experiment on ABCA1 protein, this molecule returned an EC50 of 3900 nM.

As for `O=C(Nc1cnc(OCC(F)(F)F)c(-c2ccc(Cl)cc2)c1)c1ccccc1O` [Example 60, N-(5-(4-chlorophenyl)-6-(2,2,2-trifluoroethoxy)pyridin-3-yl)-2-hydroxy-benzamide], the inhibition at 10 µM was -2% at human CB2 receptor and 38% at human CB1 receptor. Also, the “% increase of ABCA1 at 3 μM” value in the experiment on ABCA1 protein is listed as greater than 45% @ 3 μM.

As to `Cc1cc(-c2cc(NC(=O)c3cncc(C#N)c3)cnc2OCC(F)(F)F)ccc1Cl` [Example 61, N-(5-(4-chloro-3-methylphenyl)-6-(2,2,2-trifluoroethoxy)pyridin-3-yl)-5-cyanonicotinamide], the inhibition at 10 µM is 12% at human CB2 receptor and 17% at human CB1 receptor. In the experiment with ABCA1 protein, the “% increase of ABCA1 at 3 μM” value is greater than 45% @ 3 μM.

In the case of `Cc1cc(-c2cc(NC(=O)c3cccnn3)cnc2OCC(F)(F)F)ccc1Cl` [Example 62, N-(5-(4-chloro-3-methylphenyl)-6-(2,2,2-trifluoroethoxy)pyridin-3-yl)pyridazine-3-carboxamide], the inhibition at 10 µM at human CB2 receptor is 4%; at human CB1 receptor, -4%. In the experiment with ABCA1 protein, this molecule showed an EC50 of 2390 nM.

As to `O=C(Nc1cnc(OCC(F)(F)F)c(-c2ccc(Cl)c(F)c2)c1)c1cccnn1` [Example 63, N-(5-(4-chloro-3-fluorophenyl)-6-(2,2,2-trifluoroethoxy)pyridin-3-yl)pyridazine-3-carboxamide], the inhibition at 10 µM is -1% at human CB2 receptor and 5% at human CB1 receptor. In the experiment on ABCA1 protein, the EC50 amounted to 680 nM.

Regarding `O=C(Nc1cnc(OCC(F)(F)F)c(-c2ccc(Cl)cc2F)c1)c1cccnn1` [Example 64, N-(5-(4-chloro-2-fluorophenyl)-6-(2,2,2-trifluoroethoxy)pyridin-3-yl)pyridazine-3-carboxamide], the inhibition at 10 µM on human CB2 receptor amounted to 2%; on human CB1 receptor it was 9%. For the same molecule, in the experiment with ABCA1 protein, a half-maximal effect (EC50) was put at 1080 nM.

Regarding `CCc1ccc(-c2cc(NC(=O)c3cccnn3)cnc2OCC(F)(F)F)cc1` [Example 65, N-(5-(4-ethylphenyl)-6-(2,2,2-trifluoroethoxy)pyridin-3-yl)pyridazine-3-carboxamide], the inhibition at 10 µM on human CB2 receptor was found to be 5%; on human CB1 receptor it was 19%. The molecule further registered an EC50 with ABCA1 protein of 270 nM.

Regarding `O=C(Nc1cnc(OCC(F)(F)F)c(-c2ccc(Cl)cc2)c1)c1ccco1` [Example 66, N-(5-(4-chlorophenyl)-6-(2,2,2-trifluoroethoxy)pyridin-3-yl)furan-2-carboxamide], the inhibition at 10 µM came to 5% on human CB2 receptor and 30% on human CB1 receptor. Further, the “% increase of ABCA1 at 3 μM” value in the experiment with ABCA1 protein is given as greater than 45% @ 3 μM.

`O=C(Nc1cnc(OCC(F)(F)F)c(-c2ccc(Cl)cc2)c1)c1ccoc1` [Example 67, N-(5-(4-chlorophenyl)-6-(2,2,2-trifluoroethoxy)pyridin-3-yl)furan-3-carboxamide]: the values for the inhibition at 10 µM on human CB2 receptor and on human CB1 receptor were 9% and 33%, respectively. For the same molecule, the “% increase of ABCA1 at 3 μM” value with ABCA1 protein is on record as greater than 45% @ 3 μM.

As for `Cc1ccc(C(=O)Nc2cnc(OCC(F)(F)F)c(-c3ccc(Cl)cc3)c2)o1` [Example 68, N-(5-(4-chlorophenyl)-6-(2,2,2-trifluoroethoxy)pyridin-3-yl)-5-methylfuran-2-carboxamide], the inhibition at 10 µM on human CB2 receptor was 4%; at human CB1 receptor, 26%. Moreover, the “% increase of ABCA1 at 3 μM” value in the experiment on ABCA1 protein is greater than 45% @ 3 μM.

Turning to `COCCOc1ncc(NC(=O)c2ccccc2)cc1-c1ccc(Cl)c(C)c1` [Example 69, N-(5-(4-chloro-3-methylphenyl)-6-(2-methoxyethoxy)pyridin-3-yl)benzamide], the figures for the inhibition at 10 µM at human CB2 receptor and on human CB1 receptor were 18% and 35%, respectively. For the same molecule, the “% increase of ABCA1 at 3 μM” value in the experiment with ABCA1 protein was greater than 45% @ 3 μM.

On to `CN1CCOc2cc(C(=O)Nc3cnc(OCC(F)(F)F)c(-c4ccc(Cl)cc4)c3)cnc21` [Example 72, N-(5-(4-chlorophenyl)-6-(2,2,2-trifluoroethoxy)pyridin-3-yl)-4-methyl-3,4-dihydro-2H-pyrido[3,2-b][1,4]oxazine-7-carboxamide], for which the inhibition at 10 µM at human CB2 receptor is -7%; on human CB1 receptor, 25%. Besides, in the experiment with ABCA1 protein, the EC50 was found to be 780 nM.

In the case of `Nc1ccc(-c2cc(NC(=O)c3cncc(I)c3)cnc2OCC(F)(F)F)cc1Cl` [Example 73, N-(5-(4-amino-3-chlorophenyl)-6-(2,2,2-trifluoroethoxy)pyridin-3-yl)-5-iodonicotinamide], the inhibition at 10 µM at human CB2 receptor is 22%; at human CB1 receptor, 13%. Also, in the experiment with ABCA1 protein, the “% increase of ABCA1 at 3 μM” value is recorded as greater than 45% @ 3 μM.

For `O=C(Nc1cnc(OCC(F)(F)F)c(-c2ccccc2)c1)c1cccnc1` [Example 74, N-(5-phenyl-6-(2,2,2-trifluoroethoxy)pyridin-3-yl)nicotinamide], the figures for the inhibition at 10 µM at human CB2 receptor and on human CB1 receptor were -7% and 17%, respectively. The “% increase of ABCA1 at 3 μM” value in the experiment on ABCA1 protein is greater than 45% @ 3 μM.

Turning to `O=C(Nc1cnc(OCC(F)(F)F)c(-c2ccc(F)cc2)c1)c1cccnc1` [Example 75, N-(5-(4-fluorophenyl)-6-(2,2,2-trifluoroethoxy)pyridin-3-yl)nicotinamide], the inhibition at 10 µM on human CB2 receptor is 5%; on human CB1 receptor, 31%. Moreover, the “% increase of ABCA1 at 3 μM” value in the experiment with ABCA1 protein is greater than 45% @ 3 μM.

Turning to `O=C(Nc1cnc(OCC(F)(F)F)c(-c2cccc(Cl)c2)c1)c1cccnc1` [Example 76, N-(5-(3-chlorophenyl)-6-(2,2,2-trifluoroethoxy)pyridin-3-yl)nicotinamide], the inhibition at 10 µM was determined as 5% at human CB2 receptor and 1% on human CB1 receptor. In addition, the “% increase of ABCA1 at 3 μM” value in the experiment on ABCA1 protein is on record as greater than 45% @ 3 μM.

On to `COc1cncc(C(=O)Nc2cnc(OCC(F)(F)F)c(-c3ccc(Cl)cc3)c2)c1` [Example 77, N-(5-(4-chlorophenyl)-6-(2,2,2-trifluoroethoxy)pyridin-3-yl)-5-methoxynicotinamide], for which the inhibition at 10 µM on human CB2 receptor amounted to 16%; on human CB1 receptor it was 33%. It took 720 nM to reach a half-maximal effect in the experiment on ABCA1 protein (EC50).

As to `O=C(Nc1cnc(OC2CCC2)c(-c2ccc(Cl)cc2)c1)c1cnccn1` [Example 78, N-(5-(4-chlorophenyl)-6-cyclobutoxypyridin-3-yl)pyrazine-2-carboxamide], the inhibition at 10 µM on human CB2 receptor came out at 26%; on human CB1 receptor, 25%. Moreover, in the experiment with ABCA1 protein, the “% increase of ABCA1 at 3 μM” value is reported as greater than 45% @ 3 μM.

For the molecule `O=C(Nc1cnc(OC2CCC2)c(-c2ccc(Cl)cc2)c1)c1cccnc1` [Example 79, N-(5-(4-chlorophenyl)-6-cyclobutoxypyridin-3-yl)nicotinamide], the inhibition at 10 µM on human CB2 receptor was 13%; at human CB1 receptor, 29%. For the same molecule, the “% increase of ABCA1 at 3 μM” value in the experiment with ABCA1 protein was greater than 45% @ 3 μM.

As to `Cc1cc(-c2cc(NC(=O)c3cnc4c(c3)OCCN4C)cnc2OCC(F)(F)F)ccc1Cl` [Example 80, N-(5-(4-chloro-3-methylphenyl)-6-(2,2,2-trifluoroethoxy)pyridin-3-yl)-4-methyl-3,4-dihydro-2H-pyrido[3,2-b][1,4]oxazine-7-carboxamide], the inhibition at 10 µM turned out to be 14% on human CB2 receptor and 16% at human CB1 receptor. Also, in the experiment on ABCA1 protein, the “% increase of ABCA1 at 3 μM” value is greater than 45% @ 3 μM.

Consider `CN1CCOc2cc(C(=O)Nc3cnc(OCC(F)(F)F)c(-c4ccc(Cl)c(F)c4)c3)cnc21` [Example 81, N-(5-(4-chloro-3-fluorophenyl)-6-(2,2,2-trifluoroethoxy)pyridin-3-yl)-4-methyl-3,4-dihydro-2H-pyrido[3,2-b][1,4]oxazine-7-carboxamide], for which the inhibition at 10 µM on human CB2 receptor was determined as 5%; at human CB1 receptor, 21%. The molecule further displayed an EC50 in the experiment on ABCA1 protein of 2560 nM.

(Values after patent US8410107B2, “N-pyridin-3-yl or N-pyrazin-2-yl carboxamides” (Hoffmann-La Roche Inc., priority 2010, dated 2013).)
